Laboratory results reported in patent US10611740B2, “Aryl dihydro-2H-benzo[b][1,4]oxazine sulfonamide and related compounds for use as agonists of RORγ and the treatment of disease” (Lycera Corporation, priority 2015, dated 2020).

Assays:
[1] = biological target: T1, RORγ-LBD (Homo sapiens, UniProt P51449); assay: RORγ-Ligand Binding Domain (LBD) TR-FRET Assay; type: biochemical;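 as to TR-FRET Assay Max Response: 665/615 nm ratio relative to signal without ursolic acid or compound set at 100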
T1 construct: made in house; host or cells: SF9 cells (baculovirus)
T1 sequence (P51449 269-508 limits assumed): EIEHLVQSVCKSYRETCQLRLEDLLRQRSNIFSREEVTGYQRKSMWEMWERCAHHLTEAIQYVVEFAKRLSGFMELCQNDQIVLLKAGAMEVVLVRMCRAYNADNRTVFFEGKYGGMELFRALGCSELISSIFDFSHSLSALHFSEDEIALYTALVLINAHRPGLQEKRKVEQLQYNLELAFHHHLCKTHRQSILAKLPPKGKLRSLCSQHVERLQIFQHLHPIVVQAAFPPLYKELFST
In short: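 TR-FRET read-out using a biotin-tagged SRC1 coactivator LXXLL peptide (200 nM final), with the antagonist ursolic acid present at 2 μM final. Receptor is His-tagged LBD expressed in SF9 cells, ~3 nM final in pH 7.0 Tris/KCl/EDTA/DTT/BSA buffer; compounds in 1% DMSO final.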

[2] = biological target: T2, Gal4-RORγ-LBD (Homo sapiens, UniProt P51449); assay: Gal4-RORγ Luciferase Reporter Assay in HEK-293T Cells; type: cell-based; details: HEK-293 cells
T2 construct: expressed in transfected cells; host or cells: HEK-293 cells (pcDNA3.1neo plasmid)
T2 sequence (P51449 269-508 limits assumed): T1 sequence (P51449 269-508 limits assumed)
In short: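 Luminescence read-out (One-Glo, 10 min RT) after overnight compound exposure at 37 °C in HEK-293 cells carrying Gal4-RORγ-LBD plus a Gal4-luciferase reporter, in the presence of 2 μM ursolic acid. Max Response is the upper plateau from a 4-parameter logistic fit, normalized to untreated signal = 100.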

[3] = luciferase reporter, with 2 μM ursolic acid

EC50 [1] | EC50 [2, 3] | EC50 ([2]; 2 μM ursolic acid) | SMILES | TR-FRET Assay Max Response [1] | Gal4-RORγ Assay Max Response [2, 3] | Gal4-RORγ Assay Max Response ([2]; 2 μM ursolic acid)
< 0.5 µM | < 0.5 µM |  | CC(C)(CO)C(=O)NC[C@H]1CN(S(=O)(=O)c2cccc(C(F)(F)F)c2)c2cc(-c3cc(F)ccc3F)ccc2O1 [Compound 30AU, (S)-N-((6-(2,5-difluorophenyl)-4-((3-(trifluoromethyl)phenyl)-sulfonyl)-3,4-dihydro-2H-benzo[b][1,4]oxazin-2-yl)methyl)-3-hydroxy-2,2-dimethylpropanamide] | **** (The symbol “****” indicates a value greater than 200) | ** (The symbol “**” indicates a value in the range of greater than 90 to 150) | 
< 0.5 µM |  | < 0.5 µM | CC(C)(CO)C(=O)NC[C@H]1CN(S(=O)(=O)c2cccc(C(F)(F)F)c2)c2cc(-c3cc(F)cc(OC(F)F)c3)ccc2O1 [Compound 30DH, (S)-N-((6-(3-(difluoromethoxy)-5-fluorophenyl)-4-((3-(trifluoro-methyl)phenyl)sulfonyl)-3,4-dihydro-2H-benzo[b][1,4]-oxazin-2-yl)methyl)-3-hydroxy-2,2-dimethylpropanamide] | *** (The symbol “***” indicates a value in the range of greater than 150 to 200) |  | * (The symbol “*” indicates a value in the range of 25 to 90)
< 0.5 µM |  | < 0.5 µM | O=C(NC[C@H]1CN(S(=O)(=O)c2cccc(C(F)(F)F)c2)c2cc(-c3cccc(F)c3Cl)ccc2O1)C1(CO)CC1 [Compound 30CB, (S)-N-((6-(2-chloro-3-fluoro-phenyl)-4-((3-(trifluoromethyl)-phenyl)sulfonyl)-3,4-dihydro-2H-benzo[b][1,4]oxazin-2-yl)methyl)-1-(hydroxymethyl)-cyclopropane-1-carboxamide] | *** (The symbol “***” indicates a value in the range of greater than 150 to 200) |  | * (The symbol “*” indicates a value in the range of 25 to 90)
< 0.5 µM |  | < 0.5 µM | CC(=O)NC(C)(C)C[C@H]1CN(S(=O)(=O)c2cccc(C(F)(F)F)c2)c2cc(-c3cc(F)ccc3F)ccc2O1 [Compound 30CV, (S)-N-(1-(6-(2,5-difluoro-phenyl)-4-((3-(trifluoromethyl)-phenyl)sulfonyl)-3,4-dihydro-2H-benzo[b][1,4]oxazin-2-yl)-2-methylpropan-2-yl)acetamide] | *** (The symbol “***” indicates a value in the range of greater than 150 to 200) |  | * (The symbol “*” indicates a value in the range of 25 to 90)
< 0.5 µM | < 0.5 µM |  | COc1cc(OC)cc(-c2ccc3c(c2)N(S(=O)(=O)c2cccc(C(F)(F)F)c2)C[C@H](CC(C)(C)C(=O)O)O3)c1 [Compound 32Q, (S)-3-(6-(3,5-dimethoxyphenyl)-4-((3-(trifluoromethyl)phenyl)-sulfonyl)-3,4-dihydro-2H-benzo[b][1,4]oxazin-2-yl)-2,2-dimethylpropanoic acid] | **** (The symbol “****” indicates a value greater than 200) | ** (The symbol “**” indicates a value in the range of greater than 90 to 150) | 
< 0.5 µM | < 0.5 µM |  | O=C(NC[C@H]1CN(S(=O)(=O)c2cccc(C(F)(F)F)c2)c2cc(-c3cc(F)ccc3F)ccc2O1)[C@H]1C[C@H]1F [Compound 30AN, (1R,2R)-N-(((S)-6-(2,5-difluoro-phenyl)-4-((3-(trifluoromethyl)-phenyl)sulfonyl)-3,4-dihydro-2H-benzo[b][1,4]oxazin-2-yl)methyl)-2-fluorocyclo-propane-1-carboxamide] | **** (The symbol “****” indicates a value greater than 200) | ** (The symbol “**” indicates a value in the range of greater than 90 to 150) | 
< 0.5 µM | < 0.5 µM |  | COc1cc(S(=O)(=O)N2C[C@H](CCc3n[nH]c(=O)o3)Oc3ccc(-c4cc(F)ccc4F)cc32)ccc1F [Compound 28J, (S)-5-(2-(6-(2,5-difluorophenyl)-4-((4-fluoro-3-methoxyphenyl)-sulfonyl)-3,4-dihydro-2H-benzo[b][1,4]oxazin-2-yl)ethyl)-1,3,4-oxadiazol-2(3H)-one] | **** (The symbol “****” indicates a value greater than 200) | ** (The symbol “**” indicates a value in the range of greater than 90 to 150) | 

The remaining lines, values behind:

SMILES | EC50 [1] | EC50 [2, 3] | EC50 ([2]; 2 μM ursolic acid) | TR-FRET Assay Max Response [1] | Gal4-RORγ Assay Max Response [2, 3] | Gal4-RORγ Assay Max Response ([2]; 2 μM ursolic acid)
Cc1cc(-c2ccc3c(c2)N(S(=O)(=O)c2cccc(C(F)(F)F)c2)C[C@H](CCC(=O)O)O3)nc(N(C)C)c1 [Compound 4AN, (S)-3-(6-(6-(dimethylamino)-4-methylpyridin-2-yl)-4-((3-(trifluoromethyl)phenyl)sul-fonyl)-3,4-dihydro-2H-benzo[b][1,4]oxazin-2-yl)propanoic acid] | < 0.5 µM | < 0.5 µM |  | **** (The symbol “****” indicates a value greater than 200) | ** (The symbol “**” indicates a value in the range of greater than 90 to 150) | 
O=C(O)CC[C@H]1CN(S(=O)(=O)c2cccc(C(F)(F)F)c2)c2cc(-c3cccc(OCCO)c3)ccc2O1 [Compound 4AB, (S)-3-(6-(3-(2-hydroxyethoxy)-phenyl)-4-((3-(trifluoromethyl)phenyl)-sulfonyl)-3,4-dihydro-2H-benzo[b][1,4]oxazin-2-yl)propanoic acid] | > 10 µM | > 10 µM |  |  |  | 
CC(C)n1cc(-c2ccc3c(c2)N(S(=O)(=O)c2cccc(C(F)(F)F)c2)C[C@H](CCC(=O)O)O3)cn1 [Compound 4AC, (S)-3-(6-(1-isopropyl-1H-pyrazol-4-yl)-4-((3-(trifluoromethyl)phenyl)sulfonyl)-3,4-dihydro-2H-benzo[b][1,4]oxazin-2-yl)propanoic acid] | < 0.5 µM | < 0.5 µM |  | **** (The symbol “****” indicates a value greater than 200) | * (The symbol “*” indicates a value in the range of 25 to 90) | 
CC(=O)N1CC(C[C@H]2CN(S(=O)(=O)c3cccc(C(F)(F)F)c3)c3cc(-c4cc(F)cc(OC(F)F)c4)ccc3O2)C1 [Compound 61, (S)-1-(3-((6-(3-(difluoromethoxy)-5-fluorophenyl)-4-((3-(trifluoromethyl)phenyl)sulfonyl)-3,4-dihydro-2H-benzo[b][1,4]oxazin-2-yl)methyl)azetidin-1-yl)ethan-1-one] | < 0.5 µM |  | < 0.5 µM | *** (The symbol “***” indicates a value in the range of greater than 150 to 200) |  | ** (The symbol “**” indicates a value in the range of greater than 90 to 150)
O=C(O)C1CCN(C(=O)NCC[C@H]2CN(S(=O)(=O)c3cccc(C(F)(F)F)c3)c3cc(-c4cc(F)ccc4F)ccc3O2)CC1 [Compound 23T, (S)-1-((2-(6-(2,5-difluorophenyl)-4-((3-(trifluoromethyl)phenyl)-sulfonyl)-3,4-dihydro-2H-benzo[b][1,4]oxazin-2-yl)ethyl)carbamoyl)piperidine-4-carboxylic acid] | < 0.5 µM | < 0.5 µM |  | **** (The symbol “****” indicates a value greater than 200) | ** (The symbol “**” indicates a value in the range of greater than 90 to 150) | 
O=S(=O)(c1cccc(C(F)(F)F)c1)N1C[C@H]([C@H](O)CO)Oc2ccc(-c3cc(F)ccc3F)cc21 [Compound 41, (R)-1-((R)-6-(2,5-difluorophenyl)-4-((3-(trifluoromethyl)phenyl)sulfonyl)-3,4-dihydro-2H-benzo[b][1,4]oxazin-2-yl)ethane-1,2-diol] | < 0.5 µM | < 0.5 µM |  | **** (The symbol “****” indicates a value greater than 200) | * (The symbol “*” indicates a value in the range of 25 to 90) | 
O=C(O)[C@@]1(C[C@H]2CN(S(=O)(=O)c3cccc(C(F)(F)F)c3)c3cc(-c4cc(F)cc(OC(F)F)c4)ccc3O2)CCNC1=O [Compound 74, (R)-3-(((S)-6-(3-(difluoromethoxy)-5-fluorophenyl)-4-((3-(trifluoromethyl)phenyl)sulfonyl)-3,4-dihydro-2H-benzo[b][1,4]oxazin-2-yl)methyl)-2-oxopyrrolidine-3-carboxylic acid] | < 0.5 µM |  | < 0.5 µM | ** (The symbol “**” indicates a value in the range of greater than 90 to 150) |  | ** (The symbol “**” indicates a value in the range of greater than 90 to 150)
COc1cccc(-c2ccc3c(c2)N(S(=O)(=O)c2cccc(C(F)(F)F)c2)C[C@H](CCC(=O)N2CCC(C(=O)O)CC2)O3)c1 [Compound 23L, (S)-1-(3-(6-(3-methoxyphenyl)-4-((3-(trifluoromethyl)-phenyl)sulfonyl)-3,4-dihydro-2H-benzo[b][1,4]oxazin-2-yl)propanoyl)piperidine-4-carboxylic acid] | < 0.5 µM | < 0.5 µM |  | **** (The symbol “****” indicates a value greater than 200) | ** (The symbol “**” indicates a value in the range of greater than 90 to 150) | 
